These results are taken from patent US9644083B2, “Cellulose acylate film, polarizing plate protective film, polarizing plate and liquid crystal display using the same” (FUJIFILM Corporation, priority 2014, dated 2017).

One series can be described thus: acid dissociation constant pKa by alkali titration method. Particulars: 25° C., mixed solvent tetrahydrofuran 60 ml/water 40 ml. The format is physicochemical. Here is the method:
The cellulose acylate film of the present invention contains at least two chelating agents. One of the two chelating agents is a chelating agent having a […] pKa and, in the present invention, such is a chelating agent (chelating agent A) having at least one functional group whose acid dissociation constant pKa measured at 25° C. in a mixed solvent having a mixing ratio of tetrahydrofuran 60 ml/water 40 ml is 6 or less.
The acid dissociation constant pKa can be measured in accordance with an alkali titration method described in Experimental Chemistry Course, 2nd Ed., pp. 215-217, published by MARUZEN PUBLISHING CO., LTD.
At least one residual chelating agent of the at least two chelating agents which the cellulose acylate film of the present invention contains, is a chelating agent B having at least one functional group of a conjugate acid, whose pKa measured at 25° C. in a mixed solvent having a mixing ratio of tetrahydrofuran 60 ml/water 40 ml, is 7 or more.
Turning to `CCCCCCCCCCCCCCCC(=O)OC[C@H](O)[C@H]1OC(=O)C(O)=C1O` [L-ascorbic acid palmitic acid ester], the “Chelating agent A pKa of acidic group” value is recorded as 6.0. As for `O=C(O)CN(CCN(CC(=O)O)CC(=O)O)CCN(CC(=O)O)CC(=O)O` [diethylenetriaminepentaacetic acid], the “Chelating agent A pKa of acidic group” value was determined as 3.6. For `O=P(O)(O)CN(CCN(CP(=O)(O)O)CP(=O)(O)O)CP(=O)(O)O` [PH-540, Ethylenediamine N,N,N′,N′-tetrakis(methylenephosphonic acid)], the “Chelating agent A pKa of acidic group” value is given as “Less than 3”.

Still in this series, the particulars now being: pKa of conjugate acid; 25° C., mixed solvent tetrahydrofuran 60 ml/water 40 ml; read-out: Chelating agent B pKa of basic group.
With `CC(O)CN(CCN(CC(C)O)CC(C)O)CCN(CC(C)O)CC(C)O` (stereo not drawn) [N,N,N′,N″,N″-pentakis(2-hydroxypropyl)diethylenetriamine], the pKa amounted to 8.4. On to `NCCNCCNCCN` [triethylenetetramine], for which the pKa was found to be 8.9. Consider `ONc1nc(NC2CCCCC2)nc(NC2CCCCC2)n1` [Chelating agent D], for which the pKa was determined as 14.

For orientation: pKa means the negative logarithm of the acid dissociation constant.
